Laboratory results: paper PMC11882969 (Nature Communications, 2025)
Converted amounts (≈) assume the structure as drawn. “And” between values parts separate entries of the source, which are not always exact repeats. Identical values can stand only once. Like-named read-outs stand apart in the source and are kept apart here.

Columns and labels:
[1] = relative to 100 at 0 min
Procedure: (§1) Microsomal incubations were carried out in 96-well plates in 5 aliquots of 30 μL each (one for each time point). […] In the control reactions, the NADPH-cofactor system was substituted with phosphate buffer. […] Five time points over 40 min were analyzed. The reactions were stopped by adding 5 volumes of acetonitrile with internal standard to incubation aliquots, followed by protein sedimentation by centrifuging at 4869 g for 5 min. Each reaction was performed in duplicates. Supernatants were analyzed using the HPLC system coupled with a tandem mass spectrometer. The elimination constant (kel), half-life (T1/2), and intrinsic clearance (Clint) were determined in a plot of ln(AUC) versus time, using linear regression analysis.

mice [2] = experiment: Open field test; assay type: in vivo, mouse
Procedure: Thirty min after i.p. injection, mice were placed in the center of a round open-field (2 feet diameter) and their exploratory behavior recorded over the next 15 min. Distance traveled was used to represent open field behavior.

mice [3] = experiment: Body temperature by telemetric probe; assay type: in vivo, mouse; settings: 0.2 mg/kg; for Body temperature (pre-injection = 100): individual animals, sheet Figure7a
Procedure: Body temperature (BT) was measured using a telemetric probe device (HD-X10; Data Science International). Briefly, under anesthesia, the probe device was placed in the mouse abdomen and a subcutaneous tunnel was created from the neck to the abdominal skin, through which a catheter (connected to the probe) was pulled and then inserted into the left carotid artery. Three weeks later, the implanted mice were singly housed in a cage that was placed on top of the DSI receiver (for probe signal detection). We monitored BT continuously over 2 h, in the following manner: 30 min (for baseline), 30 min after injection of the vehicle and then for 1 h after injection of the compound. Data were acquired using the Ponemah Telemetry acquisition software (DSI) and percent changes were presented relative to each mouse’s baseline.

in vitro [4] = settings: mouse, microsomes, pH 7.4
Procedure: as §1

[5] = relative to 100 at 0 min; remark: listed apart in the source
Procedure: The reactions were stopped by adding 240 μL 90% acetonitrile containing internal standard with subsequent plasma proteins sedimentation by centrifuging at 5796 g for 5 min. Supernatants were analyzed by the HPLC system coupled with a tandem mass spectrometer. The percentage of the test compounds remaining after incubation in plasma and their half-lives (T1/2) were calculated.

mice [6] = experiment: Hargreaves radiant heat test; assay type: in vivo, mouse; settings: for Dose response, individual animals (FigS11a): test not printed on the sheet
physchem = settings: phosphate-buffered saline, 25 °C, pH 7.4, aqueous buffer, kinetic from dmso stock
in vitro [7] = settings: mouse, pH 7.4
Procedure: Compounds were added to one chamber and the same volume of PBS buffer pH 7.4 to the other chamber. A standard solution was created by mixing an aliquot of spiked plasma with blank buffer without dialysis. […] The stability samples were immediately diluted with acetonitrile and stored at 4 °C until LC-MS/MS analysis. All samples were diluted 5-fold with 90% acetonitrile with internal standard with subsequent plasma proteins sedimentation by centrifuging at 5,796 g for 5 min. Supernatants were analyzed using HPLC system coupled with tandem mass spectrometer. The percentage of plasma protein-bound compound, recovery and stability were calculated using following equations:7 ProteinBinding=1−arearatioinbuffer/arearatioinplasma×100 8 Recovery=arearatioinbuffer+arearatioinplasma/arearatioinstabilitysample×100 9 Stability=arearatioinrecoverysample/arearatioinstabilitysample×100

[8] = molecular target: panel of 320 non-olfactory GPCRs (Homo sapiens, UniProt P46092); assay type: cell-based
[9] = molecular target: panel of 320 non-olfactory GPCRs (Homo sapiens, UniProt P49190); assay type: cell-based
[10] = molecular target: panel of 320 non-olfactory GPCRs (Homo sapiens, UniProt P28335, I156V/I160V/N158G); assay type: cell-based
[11] = molecular target: panel of 320 non-olfactory GPCRs (Homo sapiens, UniProt Q969N4); assay type: cell-based
[12] = molecular target: panel of 320 non-olfactory GPCRs (Homo sapiens, UniProt P41143); assay type: cell-based
[13] = molecular target: panel of 320 non-olfactory GPCRs (Homo sapiens, UniProt P13945); assay type: cell-based
[14] = molecular target: panel of 320 non-olfactory GPCRs (Homo sapiens, UniProt O75388); assay type: cell-based
[15] = molecular target: panel of 320 non-olfactory GPCRs (Homo sapiens, UniProt Q99788); assay type: cell-based
[16] = molecular target: panel of 320 non-olfactory GPCRs (Homo sapiens, UniProt P08173); assay type: cell-based
[17] = molecular target: panel of 320 non-olfactory GPCRs (Homo sapiens, UniProt P46091); assay type: cell-based
[18] = molecular target: panel of 320 non-olfactory GPCRs (Homo sapiens, UniProt P21452); assay type: cell-based
[19] = molecular target: panel of 320 non-olfactory GPCRs (Homo sapiens, UniProt P30872); assay type: cell-based
[20] = molecular target: panel of 320 non-olfactory GPCRs (Homo sapiens, UniProt P25106); assay type: cell-based
[21] = molecular target: panel of 320 non-olfactory GPCRs (Homo sapiens, UniProt P35368); assay type: cell-based
[22] = molecular target: panel of 320 non-olfactory GPCRs (Homo sapiens, UniProt P51679); assay type: cell-based
[23] = molecular target: panel of 320 non-olfactory GPCRs (Homo sapiens, UniProt Q86SQ6); assay type: cell-based
hCB1 [24] = molecular target: T1, hCB1 (Homo sapiens, UniProt P21554); experiment: Cerep HTRF cAMP inhibition assay, hCB1 CHO-K1; assay type: cell-based; design: host or cells: HEK293SL cells, transient PEI transfection
Procedure: The hCB1/2 CHO-K1 cells (ATCC: CCL-61) are suspended in HBSS buffer (Invitrogen) complemented with 20 mM HEPES (pH 7.4), then distributed in microplates at a density of 5.103 cells/well in the presence of either of the following: HBSS (basal control), the reference agonist (stimulated control) or the test compounds. […] Following 30 min incubation at 37 °C, the cells are lysed, and the fluorescence acceptor (D2-labeled cAMP) and fluorescence donor (anti-cAMP antibody labeled with europium cryptate) are added. […] Each measurement was done in triplicate.

hCB1 [25] = molecular target: T1, hCB1; experiment: DiscoverX PathHunter β-arrestin-2 recruitment; assay type: cell-based;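 further: CHO-K1 cells expressing hCB1, agonist mode, compound exposure with 1% vehicle, chemiluminescence read-out of the β-arrestin-2 recruitment signal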

Sequence of panel of 320 non-olfactory GPCRs (Homo sapiens, UniProt P46092) (P46092 whole entry): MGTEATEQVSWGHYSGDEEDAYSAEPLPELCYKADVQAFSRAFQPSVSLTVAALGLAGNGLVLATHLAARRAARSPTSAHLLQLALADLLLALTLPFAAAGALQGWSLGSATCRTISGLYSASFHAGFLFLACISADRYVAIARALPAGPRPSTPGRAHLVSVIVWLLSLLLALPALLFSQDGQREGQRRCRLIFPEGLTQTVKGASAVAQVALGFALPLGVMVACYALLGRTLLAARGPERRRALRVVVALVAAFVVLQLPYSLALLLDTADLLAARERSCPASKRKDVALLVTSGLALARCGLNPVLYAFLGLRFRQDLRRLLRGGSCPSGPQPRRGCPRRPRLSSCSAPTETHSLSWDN
Sequence of panel of 320 non-olfactory GPCRs (Homo sapiens, UniProt Q86SQ6) (Q86SQ6 whole entry): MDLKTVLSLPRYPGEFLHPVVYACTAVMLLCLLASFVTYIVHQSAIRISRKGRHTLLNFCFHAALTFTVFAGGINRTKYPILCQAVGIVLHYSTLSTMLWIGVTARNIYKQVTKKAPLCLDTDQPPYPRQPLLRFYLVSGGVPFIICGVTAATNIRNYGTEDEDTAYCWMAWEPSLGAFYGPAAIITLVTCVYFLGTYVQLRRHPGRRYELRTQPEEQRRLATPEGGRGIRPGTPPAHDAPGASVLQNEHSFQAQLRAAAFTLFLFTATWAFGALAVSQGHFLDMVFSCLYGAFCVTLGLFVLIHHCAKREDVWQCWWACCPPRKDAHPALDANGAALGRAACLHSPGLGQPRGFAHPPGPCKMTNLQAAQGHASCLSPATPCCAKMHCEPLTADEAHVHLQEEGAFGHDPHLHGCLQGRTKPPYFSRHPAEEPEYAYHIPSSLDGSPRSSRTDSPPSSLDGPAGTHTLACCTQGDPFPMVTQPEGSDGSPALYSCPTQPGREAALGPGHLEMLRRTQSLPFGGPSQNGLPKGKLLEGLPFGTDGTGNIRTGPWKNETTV
Sequence of panel of 320 non-olfactory GPCRs (Homo sapiens, UniProt O75388) (O75388 whole entry): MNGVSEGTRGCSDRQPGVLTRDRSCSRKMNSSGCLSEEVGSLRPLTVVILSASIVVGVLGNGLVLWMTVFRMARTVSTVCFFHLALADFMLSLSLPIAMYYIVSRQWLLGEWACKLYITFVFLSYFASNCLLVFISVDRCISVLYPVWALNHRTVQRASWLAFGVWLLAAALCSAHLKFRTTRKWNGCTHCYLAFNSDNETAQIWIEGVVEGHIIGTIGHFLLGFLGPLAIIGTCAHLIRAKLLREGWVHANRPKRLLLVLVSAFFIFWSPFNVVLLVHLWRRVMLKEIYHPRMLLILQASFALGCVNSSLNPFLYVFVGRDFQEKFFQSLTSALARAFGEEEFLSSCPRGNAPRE
Sequence of panel of 320 non-olfactory GPCRs (Homo sapiens, UniProt P25106) (P25106 whole entry): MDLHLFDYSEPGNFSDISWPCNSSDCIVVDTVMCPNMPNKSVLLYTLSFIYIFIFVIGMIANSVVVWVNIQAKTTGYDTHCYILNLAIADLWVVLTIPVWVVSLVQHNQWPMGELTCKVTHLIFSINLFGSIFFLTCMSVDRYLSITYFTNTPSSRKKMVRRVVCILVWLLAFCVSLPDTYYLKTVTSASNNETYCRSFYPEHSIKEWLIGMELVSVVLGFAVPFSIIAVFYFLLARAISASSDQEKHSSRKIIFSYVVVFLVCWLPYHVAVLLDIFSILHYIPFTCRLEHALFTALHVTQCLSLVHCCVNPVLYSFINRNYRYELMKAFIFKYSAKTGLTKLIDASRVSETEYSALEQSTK
Sequence of panel of 320 non-olfactory GPCRs (Homo sapiens, UniProt P08173) (P08173 whole entry): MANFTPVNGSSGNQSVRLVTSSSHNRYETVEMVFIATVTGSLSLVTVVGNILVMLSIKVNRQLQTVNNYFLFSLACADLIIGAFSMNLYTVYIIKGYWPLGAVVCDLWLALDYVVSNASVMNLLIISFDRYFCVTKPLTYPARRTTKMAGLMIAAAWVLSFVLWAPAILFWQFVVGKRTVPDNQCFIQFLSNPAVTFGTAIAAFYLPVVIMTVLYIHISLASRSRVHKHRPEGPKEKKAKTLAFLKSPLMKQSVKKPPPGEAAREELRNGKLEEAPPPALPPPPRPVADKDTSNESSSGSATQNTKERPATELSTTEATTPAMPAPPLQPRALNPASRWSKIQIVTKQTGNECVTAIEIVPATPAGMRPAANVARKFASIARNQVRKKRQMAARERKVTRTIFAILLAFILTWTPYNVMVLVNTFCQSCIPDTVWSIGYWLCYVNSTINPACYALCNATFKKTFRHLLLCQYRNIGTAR
Sequence of panel of 320 non-olfactory GPCRs (Homo sapiens, UniProt P35368) (P35368 whole entry): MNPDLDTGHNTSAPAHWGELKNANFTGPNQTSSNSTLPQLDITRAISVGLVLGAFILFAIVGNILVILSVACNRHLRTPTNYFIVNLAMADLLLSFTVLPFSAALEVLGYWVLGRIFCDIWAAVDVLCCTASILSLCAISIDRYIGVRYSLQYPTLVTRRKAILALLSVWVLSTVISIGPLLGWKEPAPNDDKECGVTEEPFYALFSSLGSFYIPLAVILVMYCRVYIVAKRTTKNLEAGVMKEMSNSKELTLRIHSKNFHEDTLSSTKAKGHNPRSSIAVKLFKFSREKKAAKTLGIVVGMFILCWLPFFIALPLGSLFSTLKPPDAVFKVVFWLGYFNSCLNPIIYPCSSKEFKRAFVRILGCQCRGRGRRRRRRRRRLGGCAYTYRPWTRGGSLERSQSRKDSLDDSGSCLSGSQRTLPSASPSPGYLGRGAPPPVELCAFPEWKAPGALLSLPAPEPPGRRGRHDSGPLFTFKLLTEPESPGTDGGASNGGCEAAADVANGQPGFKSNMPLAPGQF
Sequence of panel of 320 non-olfactory GPCRs (Homo sapiens, UniProt P51679) (P51679 whole entry): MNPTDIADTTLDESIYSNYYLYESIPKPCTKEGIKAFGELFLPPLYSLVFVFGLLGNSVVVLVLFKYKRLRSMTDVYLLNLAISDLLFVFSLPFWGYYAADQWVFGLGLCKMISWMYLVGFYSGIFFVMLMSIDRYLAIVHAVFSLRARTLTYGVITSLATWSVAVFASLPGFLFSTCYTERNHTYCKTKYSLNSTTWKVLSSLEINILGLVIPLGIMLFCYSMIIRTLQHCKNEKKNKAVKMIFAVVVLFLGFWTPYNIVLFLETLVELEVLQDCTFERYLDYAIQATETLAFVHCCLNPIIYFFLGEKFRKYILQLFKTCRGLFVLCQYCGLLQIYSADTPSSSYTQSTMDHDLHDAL
Sequence of panel of 320 non-olfactory GPCRs (Homo sapiens, UniProt P46091) (P46091 whole entry): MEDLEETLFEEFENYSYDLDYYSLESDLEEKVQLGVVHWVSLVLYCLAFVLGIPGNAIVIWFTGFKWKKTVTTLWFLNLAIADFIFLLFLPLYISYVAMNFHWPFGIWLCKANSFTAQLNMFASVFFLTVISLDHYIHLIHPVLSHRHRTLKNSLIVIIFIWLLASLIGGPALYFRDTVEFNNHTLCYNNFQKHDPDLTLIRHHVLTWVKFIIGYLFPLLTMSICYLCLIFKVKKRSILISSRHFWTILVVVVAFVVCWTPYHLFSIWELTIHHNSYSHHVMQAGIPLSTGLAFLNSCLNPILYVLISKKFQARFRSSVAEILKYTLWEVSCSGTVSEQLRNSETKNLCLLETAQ
Sequence of panel of 320 non-olfactory GPCRs (Homo sapiens, UniProt Q969N4) (Q969N4 whole entry): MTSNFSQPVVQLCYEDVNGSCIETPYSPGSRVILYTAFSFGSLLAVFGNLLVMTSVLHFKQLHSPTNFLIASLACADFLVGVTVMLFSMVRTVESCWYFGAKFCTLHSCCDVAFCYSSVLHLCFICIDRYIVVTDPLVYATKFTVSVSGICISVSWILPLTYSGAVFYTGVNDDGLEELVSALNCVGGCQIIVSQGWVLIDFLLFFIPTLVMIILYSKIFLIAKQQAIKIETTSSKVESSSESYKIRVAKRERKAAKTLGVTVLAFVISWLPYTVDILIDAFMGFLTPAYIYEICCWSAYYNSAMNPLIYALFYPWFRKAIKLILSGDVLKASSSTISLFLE
Sequence of panel of 320 non-olfactory GPCRs (Homo sapiens, UniProt P30872) (P30872 whole entry): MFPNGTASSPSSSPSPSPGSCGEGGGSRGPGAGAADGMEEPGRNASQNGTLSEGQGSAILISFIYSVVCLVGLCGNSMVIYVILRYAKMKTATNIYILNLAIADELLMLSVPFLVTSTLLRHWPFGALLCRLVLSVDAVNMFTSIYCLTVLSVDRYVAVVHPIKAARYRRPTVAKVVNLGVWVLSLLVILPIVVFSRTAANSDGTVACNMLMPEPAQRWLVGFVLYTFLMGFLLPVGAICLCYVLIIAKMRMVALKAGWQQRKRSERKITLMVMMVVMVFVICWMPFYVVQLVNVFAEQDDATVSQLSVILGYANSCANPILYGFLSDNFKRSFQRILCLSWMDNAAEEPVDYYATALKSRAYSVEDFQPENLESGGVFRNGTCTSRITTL
Sequence of panel of 320 non-olfactory GPCRs (Homo sapiens, UniProt P28335, I156V/I160V/N158G) (P28335 33-458 I156V/N158G/I160V): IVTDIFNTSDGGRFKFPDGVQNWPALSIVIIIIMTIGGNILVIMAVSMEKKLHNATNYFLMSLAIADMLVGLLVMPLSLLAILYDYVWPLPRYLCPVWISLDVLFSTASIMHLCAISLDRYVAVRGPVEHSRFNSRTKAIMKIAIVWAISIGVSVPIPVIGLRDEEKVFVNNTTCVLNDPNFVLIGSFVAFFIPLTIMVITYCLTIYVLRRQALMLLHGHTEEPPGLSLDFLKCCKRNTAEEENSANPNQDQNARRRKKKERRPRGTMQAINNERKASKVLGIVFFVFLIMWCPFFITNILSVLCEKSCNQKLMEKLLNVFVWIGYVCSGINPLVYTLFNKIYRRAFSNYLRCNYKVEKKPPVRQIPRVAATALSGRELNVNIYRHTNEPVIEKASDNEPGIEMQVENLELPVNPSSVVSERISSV
Sequence of panel of 320 non-olfactory GPCRs (Homo sapiens, UniProt P13945) (P13945 whole entry): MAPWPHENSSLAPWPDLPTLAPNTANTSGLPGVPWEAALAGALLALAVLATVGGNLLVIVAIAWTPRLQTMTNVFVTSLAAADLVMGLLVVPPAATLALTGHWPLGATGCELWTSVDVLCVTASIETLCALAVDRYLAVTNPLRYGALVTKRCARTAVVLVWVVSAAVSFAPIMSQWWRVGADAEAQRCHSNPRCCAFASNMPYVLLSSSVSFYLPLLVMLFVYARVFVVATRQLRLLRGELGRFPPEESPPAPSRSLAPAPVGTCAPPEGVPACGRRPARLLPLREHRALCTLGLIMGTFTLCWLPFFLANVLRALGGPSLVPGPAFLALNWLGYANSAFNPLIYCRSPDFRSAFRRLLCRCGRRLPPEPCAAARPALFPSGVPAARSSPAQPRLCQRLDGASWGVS

COC(=O)[C@@](C)(NC(=O)c1cc(C)n(-c2cccc(C(F)(F)F)c2)n1)c1cccs1 [‘1350]
Stability time course, Mean (FS10f) ([1]; Time 0 min): 100 | Stability time course, Mean (FS10f) ([1]; Time 7 min): 13.0354 | Stability time course, Mean (FS10f) ([1]; Time 15 min): 0.461 | Stability time course, Mean (FS10f) ([1]; Time 25 min): 0.1608 | Stability time course, Mean (FS10f) ([1]; Time 40 min): 0.1274 | open field locomotion (Figure6a), individual animals (mice [2]; Dose 0.2 mg/kg): 12688.4 and 110206 and 39857.9 and 128163 and 83978.8 | open field locomotion (Figure6a), individual animals (mice [2]; Dose 0.5 mg/kg): 61622.6 and 27571.5 and 19916.8 and 94738.4 and 50932.2 | dose showing locomotor deficits, open field (mice [2]; i.p.): 0.2 mg/kg | hypothermia (mice [3]; vs baseline and vehicle): increased hypothermia compared to CP-55,940 | Body temperature (pre-injection = 100) (mice [3]; time 10): 97.5 and 99.4 (2×) | Body temperature (pre-injection = 100) (mice [3]; time 20): 90.5 and 93.9 and 97 | Body temperature (pre-injection = 100) (mice [3]; time 30): 83.8 and 88.4 and 92.4 | Body temperature (pre-injection = 100) (mice [3]; time 40): 79.1 and 83.4 and 87.4 | Body temperature (pre-injection = 100) (mice [3]; time 50): 78.7 and 80.2 and 84.2 | Body temperature (pre-injection = 100) (mice [3]; time 60): 79.9 and 78.4 and 83.6 | Body temperature (pre-injection = 100) (mice [3]; time 70): 81.4 and 78.1 and 83.5 | Body temperature (pre-injection = 100) (mice [3]; time 80): 82.4 and 78.5 and 83.9 | Body temperature (pre-injection = 100) (mice [3]; time 90): 82.1 and 79.5 and 83.5 | remaining at 40 min, 2 µM (in vitro [4]): 100% | Stability time course, Mean (FigS10e) ([5]; Time 0 min): 100 | Stability time course, Mean (FigS10e) ([5]; Time 20 min): 84.0951 | Stability time course, Mean (FigS10e) ([5]; Time 40 min): 66.362 | Stability time course, Mean (FigS10e) ([5]; Time 60 min): 47.7148 | Stability time course, Mean (FigS10e) ([5]; Time 120 min): 13.638 | Dose response, individual animals (FigS11a) (mice [6]; Dose 0.05 mg/kg): 70.2102 and 59.9464 and 116.769 and 106.654 and 53.8477 | Dose response, individual animals (FigS11a) (mice [6]; Dose 0.1 mg/kg): 178.501 and 115.43 and 147.263 and 156.486 | Dose response, individual animals (FigS11a) (mice [6]; Dose 0.2 mg/kg): 166.452 and 178.501 | lowest dose with significantly increased latency, Hargreaves (mice [6]; i.p., 30 min after injection): 0.1 mg/kg | solubility at 2 h (physchem): 23 µM (≈ 10.1 µg/mL) | recovery at 5 h, 1 μM (in vitro [7]): 107% | Fold of Basal RLU [8]: 0.9 fold and 1 fold and 1.2 fold and 1.3 fold | Fold of Basal RLU [9]: 1 and 0.7 and 0.9 | Fold of Basal RLU [10]: 0.9 fold and 1.1 fold and 0.7 fold and 1 fold | Fold of Basal RLU [11]: 0.6 fold and 0.8 fold and 0.4 fold | Fold of Basal RLU [12]: 1 fold and 0.9 fold and 0.8 fold | Fold of Basal RLU [13]: 1 and 1.5 and 1.9 and 1.1 | Fold of Basal RLU [14]: 1.1 fold and 0.9 fold and 1 fold and 0.8 fold | Fold of Basal RLU [15]: 1.1 and 1 and 1.2 | Fold of Basal RLU [16]: 1 and 1.1 and 0.6 and 0.8 | Fold of Basal RLU [17]: 1 fold and 0.8 fold and 1.4 fold | Fold of Basal RLU [18]: 1 fold and 1.1 fold and 0.9 fold | Fold of Basal RLU [19]: 1.6 fold and 1.2 fold and 1.5 fold | Fold of Basal RLU [20]: 1.1 fold and 1 fold and 1.6 fold and 2 fold | Fold of Basal RLU [21]: 1 fold and 0.8 fold and 0.6 fold and 0.9 fold | Fold of Basal RLU [22]: 1.1 and 1 and 0.9 | Fold of Basal RLU [23]: 0.9 fold and 1.1 fold and 1.3 fold

Cc1cc(C(=O)NC(C)(c2ccco2)c2ccco2)nn1-c1cccc(C(F)(F)F)c1 [‘4936]
Fold of Basal RLU [8]: 0.9 fold and 1.2 fold and 1 fold | Fold of Basal RLU [9]: 1 and 0.8 and 0.6 | Fold of Basal RLU [10]: 0.8 fold and 1 fold and 1.3 fold | Fold of Basal RLU [11]: 1.4 fold and 0.8 fold and 1.2 fold | Fold of Basal RLU [12]: 0.7 fold and 1.1 fold and 0.6 fold | Fold of Basal RLU [13]: 0.9 and 0.7 and 1 | Fold of Basal RLU [14]: 1.4 fold and 1.1 fold and 1.3 fold and 1.2 fold | Fold of Basal RLU [15]: 1.1 and 1 and 0.9 | Fold of Basal RLU [16]: 0.7 and 1.1 and 1 and 0.6 | Fold of Basal RLU [17]: 1 fold and 1.2 fold and 1.5 fold and 1.3 fold | Fold of Basal RLU [18]: 1.3 fold and 1.1 fold and 1.5 fold | Fold of Basal RLU [19]: 1.3 fold and 1.2 fold and 1.5 fold and 1.8 fold | Fold of Basal RLU [20]: 3.3 fold and 2.7 fold and 2.1 fold and 4 fold | Fold of Basal RLU [21]: 0.9 fold and 0.8 fold | Fold of Basal RLU [22]: 0.6 and 0.5 | Fold of Basal RLU [23]: 0.8 fold and 0.7 fold and 0.9 fold

COC(=O)C(C)(NC(=O)c1cc(C)n(-c2cccc(C(F)(F)F)c2)n1)c1cccs1 (centres unmarked) [‘4042]
Emax (hCB1 [24]; CHO-K1): 96% | Cerep cAMP pEC50 (hCB1 [24]; hCB1): 11.1 | DiscoverX ß-arrestin recruitment pEC50 (hCB1 [25]): 8.7 [8.3 – 9.6] | response at log[M] -5 (FigS4f) (hCB1 [25]; log[M] = -5, individual replicates): 61.1792 and 63.739 | response at log[M] -5.47712 (FigS4f) (hCB1 [25]; log[M] = -5.47712, individual replicates): 59.4535 and 60.8053 | response at log[M] -5.95424 (FigS4f) (hCB1 [25]; log[M] = -5.95424, individual replicates): 62.531 and 63.2501 | response at log[M] -6.43136 (FigS4f) (hCB1 [25]; log[M] = -6.43136, individual replicates): 63.3939 and 54.9092 | response at log[M] -6.90849 (FigS4f) (hCB1 [25]; log[M] = -6.90849, individual replicates): 60.9779 and 60 | response at log[M] -7.38561 (FigS4f) (hCB1 [25]; log[M] = -7.38561, individual replicates): 55.1393 and 55.8296 | response at log[M] -7.86273 (FigS4f) (hCB1 [25]; log[M] = -7.86273, individual replicates): 45.8781 and 43.2321 | response at log[M] -8.33985 (FigS4f) (hCB1 [25]; log[M] = -8.33985, individual replicates): 34.3448 and 36.6457 | response at log[M] -8.81697 (FigS4f) (hCB1 [25]; log[M] = -8.81697, individual replicates): 21.5459 and 25.2274 | response at log[M] -9.29409 (FigS4f) (hCB1 [25]; log[M] = -9.29409, individual replicates): 9.61 and 9.437 | EC50 (hCB1 [25]; read-out: DiscoverX ß-arrestin recruitment EC50): 2.3 nM | Emax (hCB1 [25]; read-out: DiscoverX ß-arrestin recruitment Emax): 71%
